Measurements: patent publication US20220403337A1, “CELL REPROGRAMMING METHOD” (priority 2019, published 2022)

Key:
Format in all cases: cell-based
[1] = system: Normal human skin fibroblasts (adult); experiment: Extinction of cells at high 2-mercaptoethanol concentration; conditions: D-MEM medium
Experimental: (§1) Normal human skin fibroblasts (adult) (Takara Bio) were seeded to a spheroid plate, and after 24 to 48 hours, medium exchange was performed on a D-MEM (Low Glucose) medium to which 2-mercaptoethanol diluted by 1/100000 (142 μM) was added. Then, after three to four days, medium exchange was performed again on the same D-MEM medium.
(§2) The processes similar to those of the above-described items 1 and 2 were performed to examine the concentration of 2-mercaptoethanol. Specifically, except that the concentration of 2-mercaptoethanol was set to 0.142 μM, 1.42 μM, 14.2 μM, 142 μM, 1.42 mM, 14.2 mM, and 142 mM, the operations same as those in the items 1 and 2 were performed.

[2] = system: Normal human skin fibroblasts (adult); experiment: Reprogramming of human skin fibroblasts: change in form, spheroid formation, alkaline phosphatase stain
Experimental: as §1
Then, after three or four days, the medium exchange was performed again on the same medium.
The alkaline phosphatase reaction of the cells finally obtained by the above-described culture was examined. The stain of alkaline phosphatase was performed in accordance with the operating manual attached to the kit using Alkaline Phosphatase Live Stain (Invitrogen). Specifically, the cells were cultured for 30 minutes in a medium in which a staining fluid (AP Live Stain) attached to the kit diluted by 500 times was added in the D-MEM. Afterwards, the medium was exchanged and cleaning was performed for five minutes x two times.
as §2
Similarly to the item 1, after performing the culture in the D-MEM medium containing the 2-mercaptoethanol (142 μM), LIF (wako, used by 1:1000), ACTH (wako, 10 μmol/L), bFGF (wako, 0.34 nmol/L), and AR-A014418 (Merck, 3 μM) were added in this medium and further the cells were cultured for one week. As a result, both of spheroid formation of the cells and the alkaline phosphatase stain were observed.
In the item 1, when (i) only the LIF, (ii) only the ACTH, or (iii) only the LIF and the ACTH were added to the ADSC-4 medium for culture, spheroid formation of the cells and the alkaline phosphatase stain were observed under any conditions.

[3] = system: Nanog, Klf4, Oct4, and Sox2; experiment: PCR for expression of undifferentiated markers; conditions: human skin fibroblasts processed with 2-mercaptoethanol and reprogrammed (FIG. 4 lane 3)
Experimental: Whether gene expression had been generated was examined on Nanog, Klf4, Oct4, and Sox2 as the undifferentiated markers. The RNA was collected from the cells using a RNeasy Mini Kit (QIAGEN). PCR was performed on the above-described various kinds of undifferentiated markers using the method described in Cell. 2007 Nov 30; 131(5): 861-72.

[4] = system: normal human skin fibroblast (adult); experiment: Effect by CCL2 added to LIF on reprogramming (cell form)
Experimental: The CCL2 was added to the LIF and an influence given to reprogramming was verified. In accordance with Working Example 1, while medium exchange was performed on a normal human skin fibroblast (adult) (the Takara Bio) in a D-MEM medium containing 2-mercaptoethanol (142 μM) for three to four days, culture was performed for seven days. Next, culture was performed for additional seven days in a medium in which (i) only LIF, (ii) LIF+CCL2 (10 ng/mL), or (iii) LIF+CCL2 (100 ng/mL) were added to an ADSC-4 medium. Note that the LIF was used by 1:1000.

[5] = culture only in D-MEM containing 2-mercaptoethanol (142 μM), no step (b)
[6] = after 2-mercaptoethanol (142 μM) step, only the named factor(s) added to ADSC-4 medium

For `OCCS` [2-mercaptoethanol], the “2-mercaptoethanol concentration at which extinction of the cells was observed” value [1] was at least 14.2 mM, the “change in form of the cells” value ([2]; 142 μM in D-MEM (Low Glucose), cultured for one week) was “the change in form of the cells was confirmed” and the “spheroid formation of the cells and alkaline phosphatase stain” value ([2]; 142 μM in D-MEM, then LIF, ACTH, bFGF, AR-A014418 added in this same medium, one further week) was “observed”. For the same molecule, the spheroid formation ([2]; 142 μM one week, then one week in ADSC-4 with LIF 1:1000, ACTH 10 μmol/L, bFGF 0.34 nmol/L, AR-A014418 3 μM) was “forming spheroids”, the “alkaline phosphatase stain (AP Live Stain, fluorescence microscope)” value ([2]; 142 μM one week, then one week in ADSC-4 with LIF, ACTH, bFGF, AR-A014418) was “the stain was observed” and the “spheroid formation of the cells and alkaline phosphatase stain” value ([2]; 2-mercaptoethanol at 0.142 μM to 1.42 mM in step (a), then ADSC-4 with LIF, ACTH, bFGF, AR-A014418) was “observed”. For the same molecule, the alkaline phosphatase stain ([2]; 2-mercaptoethanol at 14.2 μM to 1.42 mM in step (a), then ADSC-4 with LIF, ACTH, bFGF, AR-A014418) was “especially strongly observed”, the alkaline phosphatase stain [2, 5] was “weak” and the “spheroid formation of the cells” value [2, 5] was “observed”. The “expression of undifferentiated markers Nanog, Klf4, Oct4, and Sox2 (PCR bands around targeted sizes)” value [3] was “bands were able to be confirmed”.

“ACTH: adrenocorticotropic hormone (wako, 10 μmol/L) (SYSMEHFRWGKPVGKKRRPVKVYPNGAEDESAEAFPLEF; Corticotropin; UniProt P01189 138-176, looked up)” was tested, and the “spheroid formation of the cells and alkaline phosphatase stain” value [2, 6] was “observed”.

In the case of “CCL2: chemokine (C-C motif) ligand 2, OCT3/4 transcription stimulating factor”, the “cell aggregation on addition of CCL2 to LIF” value ([4]; contours between cells clarified, divergence of cell adhesion recognized (FIG. 13D)) is reported as “remarkable”.

“LIF: leukemia inhibiting factor, OCT3/4 transcription stimulating factor (wako, used by 1:1000)” was tested, and the “alkaline phosphatase stain (strength)” value [2, 6] was “especially observed strongly”, the “spheroid formation of the cells and alkaline phosphatase stain” value [2, 6] was “observed” and the “change in form of the cells” value ([4]; (i) only LIF 1:1000 in ADSC-4, seven days, after 2-mercaptoethanol (142 μM) seven days) was “confirmed”.
